# From patent US7612064B2, “Sulfopyrroles” (Takeda Pharmaceutical Company Limited, priority 2003, dated 2009)
# Key:
# HeLa = assay: MTS proliferation assay; assay type: cell-based, human; conditions: 72 h
# In short: (§1)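 Compounds at final 10/3/1/0.3 μM (added in complete medium, ≤5% DMSO); 72 h, culture conditions; + MTS, 3 h; A492.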
# Jurkat = assay: MTS proliferation assay; assay type: cell-based, human; conditions: 72 h
# In short: as §1
# MRC5 = assay: MTS proliferation assay; assay type: cell-based; conditions: MRC5, 72 h
# In short: as §1
# [1] = Hoechst 33342 nuclear staining; assay type: cell-based; conditions: for Hoechst 33342 nuclear staining score, HeLa: HeLa cells; for Hoechst 33342 nuclear staining score, Jurkat: Jurkat cells; for Hoechst 33342 nuclear staining score, H460: H460 cells; for Hoechst 33342 nuclear staining score, Jily: Jily cells; for Hoechst 33342 nuclear staining score, MRC5: MRC5 cells;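 for all read-outs here: apoptotic nuclei scored 0 none 1 weak under 50% of cells 2 strong over 50% of cells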
# In short: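 After a further 30 min incubation, plates were inspected on a standard inverted fluorescence microscope. The fraction of apoptotic nuclei and other apoptosis-specific morphology were scored as 0 for no activity, 1 for weak activity in less than 50% of the cells, and 2 for strong activity in more than 50% of the cells.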
# [2] = conc 0.1 (final concentrations in μM), 24 h or 48 h incubation
# [3] = conc 0.3 (final concentrations in μM), 24 h or 48 h incubation
# [4] = conc 1 (final concentrations in μM), 24 h or 48 h incubation
# [5] = conc 3 (final concentrations in μM), 24 h or 48 h incubation
# [6] = conc 10 (final concentrations in μM), 24 h or 48 h incubation
smiles,measurement,setting,value
Cc1ccc(S(=O)(=O)n2cc(CN3CCN(c4ncccn4)CC3)cc2-c2ccc3c(c2)OCO3)cc1 [Example 28],IC50,HeLa,> 1 µM
same,IC50,Jurkat,> 1 µM
same,IC50,MRC5,> 1 µM
same,"Hoechst 33342 nuclear staining score, HeLa",[1]; [2],0
same,"Hoechst 33342 nuclear staining score, HeLa",[1]; [3],0
same,"Hoechst 33342 nuclear staining score, HeLa",[1]; [4],0
same,"Hoechst 33342 nuclear staining score, HeLa",[1]; [5],0
same,"Hoechst 33342 nuclear staining score, Jurkat",[1]; [2],0
same,"Hoechst 33342 nuclear staining score, Jurkat",[1]; [3],0
same,"Hoechst 33342 nuclear staining score, Jurkat",[1]; [4],0
same,"Hoechst 33342 nuclear staining score, Jurkat",[1]; [5],0
Cc1ccc(S(=O)(=O)n2cc(CN(C)C3CCN(C)CC3)cc2-c2ccc3c(c2)OCO3)cc1 [Example 26],IC50,HeLa,> 1 µM
same,IC50,Jurkat,> 1 µM
same,IC50,MRC5,> 1 µM
same,"Hoechst 33342 nuclear staining score, HeLa",[1]; [2],0
same,"Hoechst 33342 nuclear staining score, HeLa",[1]; [3],0
same,"Hoechst 33342 nuclear staining score, HeLa",[1]; [4],0
same,"Hoechst 33342 nuclear staining score, HeLa",[1]; [5],0
same,"Hoechst 33342 nuclear staining score, Jurkat",[1]; [2],0
same,"Hoechst 33342 nuclear staining score, Jurkat",[1]; [3],0
same,"Hoechst 33342 nuclear staining score, Jurkat",[1]; [4],0
same,"Hoechst 33342 nuclear staining score, Jurkat",[1]; [5],0
Cc1ccc(S(=O)(=O)n2cc(CN3CCN(c4ccccn4)CC3)cc2-c2ccc3c(c2)OCO3)cc1 [Example 32],IC50,HeLa,> 1 µM
same,IC50,Jurkat,> 1 µM
same,IC50,MRC5,> 1 µM
same,"Hoechst 33342 nuclear staining score, HeLa",[1]; [2],0
same,"Hoechst 33342 nuclear staining score, HeLa",[1]; [3],0
same,"Hoechst 33342 nuclear staining score, HeLa",[1]; [4],0
same,"Hoechst 33342 nuclear staining score, HeLa",[1]; [5],0
same,"Hoechst 33342 nuclear staining score, Jurkat",[1]; [2],0
same,"Hoechst 33342 nuclear staining score, Jurkat",[1]; [3],0
same,"Hoechst 33342 nuclear staining score, Jurkat",[1]; [4],0
same,"Hoechst 33342 nuclear staining score, Jurkat",[1]; [5],0
Cc1ccc(S(=O)(=O)n2cc(CNCCCN3CCN(Cc4ccccc4)CC3)cc2-c2ccc3c(c2)OCO3)cc1 [Example 23],IC50,HeLa,> 1 µM
same,IC50,Jurkat,> 1 µM
same,IC50,MRC5,> 1 µM
same,"Hoechst 33342 nuclear staining score, HeLa",[1]; [2],0
same,"Hoechst 33342 nuclear staining score, HeLa",[1]; [3],0
same,"Hoechst 33342 nuclear staining score, HeLa",[1]; [4],0
same,"Hoechst 33342 nuclear staining score, HeLa",[1]; [5],0
same,"Hoechst 33342 nuclear staining score, Jurkat",[1]; [2],0
same,"Hoechst 33342 nuclear staining score, Jurkat",[1]; [3],0
same,"Hoechst 33342 nuclear staining score, Jurkat",[1]; [4],0
same,"Hoechst 33342 nuclear staining score, Jurkat",[1]; [5],0
CCN(CC)CCCNCc1cc(-c2ccc3c(c2)OCO3)n(S(=O)(=O)c2ccc(C)cc2)c1 [Example 34],IC50,HeLa,> 1 µM
same,IC50,Jurkat,> 1 µM
same,IC50,MRC5,> 1 µM
same,"Hoechst 33342 nuclear staining score, HeLa",[1]; [2],0
same,"Hoechst 33342 nuclear staining score, HeLa",[1]; [3],0
same,"Hoechst 33342 nuclear staining score, HeLa",[1]; [4],0
same,"Hoechst 33342 nuclear staining score, HeLa",[1]; [5],0
same,"Hoechst 33342 nuclear staining score, Jurkat",[1]; [2],0
same,"Hoechst 33342 nuclear staining score, Jurkat",[1]; [3],0
same,"Hoechst 33342 nuclear staining score, Jurkat",[1]; [4],0
same,"Hoechst 33342 nuclear staining score, Jurkat",[1]; [5],0
COc1cc(-c2cc(-c3cncc(C(=O)NCCC4CCCN4C)c3)cn2S(=O)(=O)c2ccc(C)cc2)cc(OC)c1OC.Cl (stereo not shown) [Example 62],IC50,HeLa,> 1 µM
same,IC50,Jurkat,> 1 µM
same,IC50,MRC5,> 1 µM
same,"Hoechst 33342 nuclear staining score, H460",[1]; conc 0.1,0
same,"Hoechst 33342 nuclear staining score, H460",[1]; conc 0.3,0
same,"Hoechst 33342 nuclear staining score, H460",[1]; conc 1,0
same,"Hoechst 33342 nuclear staining score, H460",[1]; conc 3,0
same,"Hoechst 33342 nuclear staining score, HeLa",[1]; conc 0.1,0
same,"Hoechst 33342 nuclear staining score, HeLa",[1]; conc 0.3,0
same,"Hoechst 33342 nuclear staining score, HeLa",[1]; conc 1,0
same,"Hoechst 33342 nuclear staining score, HeLa",[1]; conc 3,0
same,"Hoechst 33342 nuclear staining score, Jily",[1]; conc 0.1,0
same,"Hoechst 33342 nuclear staining score, Jily",[1]; conc 0.3,0
same,"Hoechst 33342 nuclear staining score, Jily",[1]; conc 1,0
same,"Hoechst 33342 nuclear staining score, Jily",[1]; conc 3,0
same,"Hoechst 33342 nuclear staining score, Jurkat",[1]; conc 0.1,0
same,"Hoechst 33342 nuclear staining score, Jurkat",[1]; conc 0.3,0
same,"Hoechst 33342 nuclear staining score, Jurkat",[1]; conc 1,0
same,"Hoechst 33342 nuclear staining score, Jurkat",[1]; conc 3,2 (strong activity comprising more than 50% of the cells)
same,"Hoechst 33342 nuclear staining score, MRC5",[1]; conc 0.1,0
same,"Hoechst 33342 nuclear staining score, MRC5",[1]; conc 0.3,0
same,"Hoechst 33342 nuclear staining score, MRC5",[1]; conc 1,0
same,"Hoechst 33342 nuclear staining score, MRC5",[1]; conc 3,0
same,"Hoechst 33342 nuclear staining score, PBLs",[1]; conc 0.1,0
same,"Hoechst 33342 nuclear staining score, PBLs",[1]; conc 0.3,0
same,"Hoechst 33342 nuclear staining score, PBLs",[1]; conc 1,0
same,"Hoechst 33342 nuclear staining score, PBLs",[1]; conc 3,0
COc1cc(-c2cc(-c3cccnc3)cn2S(=O)(=O)c2ccc(OC(F)(F)F)cc2)cc(OC)c1OC [Example 77],IC50,HeLa,> 1 µM
same,IC50,Jurkat,> 1 µM
same,IC50,MRC5,> 1 µM
same,"Hoechst 33342 nuclear staining score, H460",[1]; conc 0.1,0
same,"Hoechst 33342 nuclear staining score, H460",[1]; conc 0.3,0
same,"Hoechst 33342 nuclear staining score, H460",[1]; conc 1,0
same,"Hoechst 33342 nuclear staining score, H460",[1]; conc 3,1 (weak activity comprising less than 50% of the cells)
same,"Hoechst 33342 nuclear staining score, HeLa",[1]; conc 0.1,0
same,"Hoechst 33342 nuclear staining score, HeLa",[1]; conc 0.3,0
same,"Hoechst 33342 nuclear staining score, HeLa",[1]; conc 1,0
same,"Hoechst 33342 nuclear staining score, HeLa",[1]; conc 3,0
same,"Hoechst 33342 nuclear staining score, Jily",[1]; conc 0.1,0
same,"Hoechst 33342 nuclear staining score, Jily",[1]; conc 0.3,0
same,"Hoechst 33342 nuclear staining score, Jily",[1]; conc 1,0
same,"Hoechst 33342 nuclear staining score, Jily",[1]; conc 3,1 (weak activity comprising less than 50% of the cells)
same,"Hoechst 33342 nuclear staining score, Jurkat",[1]; conc 0.1,0
same,"Hoechst 33342 nuclear staining score, Jurkat",[1]; conc 0.3,0
same,"Hoechst 33342 nuclear staining score, Jurkat",[1]; conc 1,0
same,"Hoechst 33342 nuclear staining score, Jurkat",[1]; conc 3,2 (strong activity comprising more than 50% of the cells)
same,"Hoechst 33342 nuclear staining score, MRC5",[1]; conc 0.1,0
same,"Hoechst 33342 nuclear staining score, MRC5",[1]; conc 0.3,0
same,"Hoechst 33342 nuclear staining score, MRC5",[1]; conc 1,0
same,"Hoechst 33342 nuclear staining score, MRC5",[1]; conc 3,0
same,"Hoechst 33342 nuclear staining score, PBLs",[1]; conc 0.1,0
same,"Hoechst 33342 nuclear staining score, PBLs",[1]; conc 0.3,0
same,"Hoechst 33342 nuclear staining score, PBLs",[1]; conc 1,0
same,"Hoechst 33342 nuclear staining score, PBLs",[1]; conc 3,0
Cc1ccc(S(=O)(=O)n2cc(-c3cncnc3)cc2-c2ccc3c(c2)OCO3)cc1 [Example 46],IC50,HeLa,> 1 µM
same,IC50,Jurkat,> 1 µM
same,IC50,MRC5,> 1 µM
same,"Hoechst 33342 nuclear staining score, HeLa",[1]; [3],0
same,"Hoechst 33342 nuclear staining score, HeLa",[1]; [4],0
same,"Hoechst 33342 nuclear staining score, HeLa",[1]; [5],0
same,"Hoechst 33342 nuclear staining score, HeLa",[1]; [6],0
same,"Hoechst 33342 nuclear staining score, Jurkat",[1]; [3],0
same,"Hoechst 33342 nuclear staining score, Jurkat",[1]; [4],0
same,"Hoechst 33342 nuclear staining score, Jurkat",[1]; [5],0
same,"Hoechst 33342 nuclear staining score, Jurkat",[1]; [6],0
Cc1ccc(S(=O)(=O)n2cc(CNCCCN3CCN(C)CC3)cc2-c2ccc3c(c2)OCO3)cc1 [Example 12],IC50,HeLa,> 1 µM
same,IC50,Jurkat,> 1 µM
same,IC50,MRC5,> 1 µM
same,"Hoechst 33342 nuclear staining score, HeLa",[1]; [2],0
same,"Hoechst 33342 nuclear staining score, HeLa",[1]; [3],0
same,"Hoechst 33342 nuclear staining score, HeLa",[1]; [4],0
same,"Hoechst 33342 nuclear staining score, HeLa",[1]; [5],0
same,"Hoechst 33342 nuclear staining score, Jurkat",[1]; [2],0
same,"Hoechst 33342 nuclear staining score, Jurkat",[1]; [3],0
same,"Hoechst 33342 nuclear staining score, Jurkat",[1]; [4],0
same,"Hoechst 33342 nuclear staining score, Jurkat",[1]; [5],0
CCN1CCCC1CNCc1cc(-c2ccc3c(c2)OCO3)n(S(=O)(=O)c2ccc(C)cc2)c1 (stereo not shown) [Example 21],IC50,HeLa,> 1 µM
same,IC50,Jurkat,> 1 µM
same,IC50,MRC5,> 1 µM
same,"Hoechst 33342 nuclear staining score, HeLa",[1]; [2],0
same,"Hoechst 33342 nuclear staining score, HeLa",[1]; [3],0
same,"Hoechst 33342 nuclear staining score, HeLa",[1]; [4],0
same,"Hoechst 33342 nuclear staining score, HeLa",[1]; [5],0
same,"Hoechst 33342 nuclear staining score, Jurkat",[1]; [2],0
same,"Hoechst 33342 nuclear staining score, Jurkat",[1]; [3],0
same,"Hoechst 33342 nuclear staining score, Jurkat",[1]; [4],0
same,"Hoechst 33342 nuclear staining score, Jurkat",[1]; [5],0
COc1cc(-c2cc(CNc3ccc(N4CCOCC4)cc3)cn2S(=O)(=O)c2ccc(C)cc2)cc(OC)c1OC [Example 71],IC50,HeLa,< 1 µM
same,IC50,Jurkat,< 1 µM
same,IC50,MRC5,< 1 µM
same,"Hoechst 33342 nuclear staining score, H460",[1]; conc 0.1,0
same,"Hoechst 33342 nuclear staining score, H460",[1]; conc 0.3,0
same,"Hoechst 33342 nuclear staining score, H460",[1]; conc 1,2 (strong activity comprising more than 50% of the cells)
same,"Hoechst 33342 nuclear staining score, H460",[1]; conc 3,2 (strong activity comprising more than 50% of the cells)
same,"Hoechst 33342 nuclear staining score, HeLa",[1]; conc 0.1,0
same,"Hoechst 33342 nuclear staining score, HeLa",[1]; conc 0.3,0
same,"Hoechst 33342 nuclear staining score, HeLa",[1]; conc 1,2 (strong activity comprising more than 50% of the cells)
same,"Hoechst 33342 nuclear staining score, HeLa",[1]; conc 3,2 (strong activity comprising more than 50% of the cells)
same,"Hoechst 33342 nuclear staining score, Jily",[1]; conc 0.1,0
same,"Hoechst 33342 nuclear staining score, Jily",[1]; conc 0.3,0
same,"Hoechst 33342 nuclear staining score, Jily",[1]; conc 1,2 (strong activity comprising more than 50% of the cells)
same,"Hoechst 33342 nuclear staining score, Jily",[1]; conc 3,2 (strong activity comprising more than 50% of the cells)
same,"Hoechst 33342 nuclear staining score, Jurkat",[1]; conc 0.1,0
same,"Hoechst 33342 nuclear staining score, Jurkat",[1]; conc 0.3,2 (strong activity comprising more than 50% of the cells)
same,"Hoechst 33342 nuclear staining score, Jurkat",[1]; conc 1,2 (strong activity comprising more than 50% of the cells)
same,"Hoechst 33342 nuclear staining score, Jurkat",[1]; conc 3,2 (strong activity comprising more than 50% of the cells)
same,"Hoechst 33342 nuclear staining score, MRC5",[1]; conc 0.1,0
same,"Hoechst 33342 nuclear staining score, MRC5",[1]; conc 0.3,0
same,"Hoechst 33342 nuclear staining score, MRC5",[1]; conc 1,2 (strong activity comprising more than 50% of the cells)
same,"Hoechst 33342 nuclear staining score, MRC5",[1]; conc 3,2 (strong activity comprising more than 50% of the cells)
same,"Hoechst 33342 nuclear staining score, PBLs",[1]; conc 0.1,0
same,"Hoechst 33342 nuclear staining score, PBLs",[1]; conc 0.3,0
same,"Hoechst 33342 nuclear staining score, PBLs",[1]; conc 1,0
same,"Hoechst 33342 nuclear staining score, PBLs",[1]; conc 3,0
